melting point	SMILES
133 °C	COc1cc(C(C)(C)C)c(OC(C)=O)c(C(C)(C)C)c1CC(C)=O
124 to 126 °C	CCn1cc(C2CCC3(CC2)OCCO3)c2cc(C#N)ccc21
101 to 102 °C	CCN(C(=O)n1oc(C)c(Cl)c1=O)c1ccc(Cl)cc1Cl
166 to 168 °C	O=C1CCCCN1C1=CC(CF)(CF)Oc2ccc(C(F)(F)F)cc21
159 to 162 °C	CC1(CCC(N)=O)C(=O)CCC1=O
223 to 234 °C	CCCn1c(=O)[nH]c2cc(Cl)cc(Cl)c2c1=O
184 °C	CC(=O)NC[C@H]1CN(c2ccc(N3CC(O[Si](C)(C)C(C)(C)C)C3)c(F)c2)C(=O)O1
103 °C	CC(=O)OCC1OC(c2nc(C(N)=O)cs2)C(OC(C)=O)C1OC(C)=O (centres undefined)
185 to 188 °C	Nc1cccc(-c2ccc(C3CCNC3=O)cc2F)n1 (centres undefined)
103 to 106 °C	COC(=O)c1c(NC(C)=O)sc2c1CCCC2
119 to 120 °C	NCCCNC(=O)Cn1ncc(-c2ccccc2)c1-c1ccccc1
105 to 107 °C	COC(=O)c1snc(-c2ccc(Cl)c(Cl)c2)c1C(=O)OC
250 °C	Cc1c(F)c(F)c(N)c2c(=O)c(C(=O)O)cn(-c3nc(N)c(F)cc3F)c12
212 to 215 °C	CC1CC(N)=NN1c1nc2ccccc2s1 (centres undefined)
156 to 157 °C	CCCSC1(C(F)(F)F)C=NC(=O)Nc2ccc(Cl)cc21 (centres undefined)
134 to 135 °C	OCc1c[nH]c(Cc2ccccc2)n1
113 to 115 °C	Cc1ccc(CN2CC=C(/C=C/c3ccc(Cl)cc3)CC2)cc1
107 to 108 °C	CSC(C#N)c1cccc(C(=O)c2ccccc2)c1N (centres undefined)
185 to 190 °C	C[C@H](O)C(=O)Nc1c(C(=O)c2ccccc2)[nH]c2cc(Cl)ccc12
196 to 198 °C	Cc1cc(O)cc2cc(-c3ccc(O)c(F)c3)oc12
242 °C	Oc1ncnc2c1c(-c1ccco1)nn2Cc1ccccc1
132 to 133 °C	N#Cc1cccc(-c2nc(N3CCC(O)C3)cc3cccnc23)c1 (centres undefined)
115 to 135 °C	CC(C)(C)OC(=O)N(CC=CCl)c1cc(OCc2ccccc2)c2ncccc2c1I
188 to 190 °C	COc1ccccc1N1CCN(Cc2c[nH]c3ccccc23)CC1

melting point	SMILES
122 to 123 °C	CCC(=CC(CNC(=O)c1cnccc1C(N)=O)=NO)C(C)[N+](=O)[O-] (centres undefined)
33 to 35 °C	COc1cccc(C#Cc2ccncc2)c1
151 to 153 °C	OCCCc1nc2cccnc2[nH]1
225 to 227 °C	O=C1OCc2c1cc1ccc3c(c1c2-c1ccc(Cl)cc1)OCO3
120 to 130 °C	COc1cc(/C=C/c2cc(/C=C/c3c[nH]c4ccccc34)n[nH]2)ccc1OCc1ccccn1
265 °C	COCc1csc2c(C(=O)O)c(=O)c3cc4c(cc3n12)OCO4
159 to 161 °C	COc1ccc(OC)c(CC(=O)c2c(O)c3cccnc3n(-c3ccccc3)c2=O)c1
112 to 113 °C	CCNC(=O)n1oc2ccccc2c1=O
104 to 106 °C	COC(=O)c1ccc(S(C)(=O)=O)c(C2=NOCC2)c1C
79 to 81 °C	O=Cc1nn(-c2c(Cl)cc(C(F)(F)F)cc2Cl)cc1SC(F)(F)F
> 250 °C	CCOC(=O)Cn1c(=O)c(=O)[nH]c2ccc3ccc([N+](=O)[O-])cc3c21
145 °C	CNC(=O)n1sc(OCc2ccc(Cl)cc2)nc1=O
193 to 195 °C	Cc1cc2c3c(ccc2cc1C=O)OC(=O)C3(C)C
73 to 74 °C	N=C(Nc1ccc(CNCc2ccccc2)cc1)c1cccs1
140 °C	CC(C)S(=O)(=O)c1ccc(Oc2ccc([N+](=O)[O-])c(NCCC#N)c2)c(Cl)c1
178 to 179 °C	Cc1cc2c(cc1C)C(c1ccccc1)(C(F)(F)C(F)(F)F)c1cc(C)c(C)cc1O2
182 to 184 °C	COc1cc2cc(C(=O)N3CC(CCl)c4c3cc(OCc3ccccc3)c3ncccc43)[nH]c2c(OC)c1OC (centres undefined)
206 to 208 °C	COc1ccc(NC(=O)c2c(C)c([N+](=O)[O-])cc3nc(OC)c(OC)nc23)cc1
> 240 °C	CCOC(=O)C1=Nc2cc3c(c(C)c2=C1C)N=c1ccc(C#N)cc1=3
243 to 245 °C	Cc1c(C(=O)O)sc(=O)c2ccccc12
126 to 135 °C	C=CCOC(=O)c1ccc(COC(=O)Nc2cnc(-c3ccccc3)n(CC(=O)NC(Cc3ccccc3)C(O)C(F)(F)F)c2=O)cc1 (centres undefined)
175 to 176 °C	CCCn1nc2c(N)nc3ccccc3c2c1CCc1ccccc1
115 to 116 °C	CCCC(=O)c1cnc2c(C)cccc2c1Nc1cc(OC)ccc1OC
165 to 166 °C	COc1ccc(-n2nnc(-c3ccc(C(F)(F)F)cc3F)c2N)cc1

melting point	SMILES
132 to 136 °C	COc1nc(C(F)(F)F)cc(=O)n1-c1cc(O)c(Br)cc1F
167 to 168 °C	COc1ccc(-c2cc(=O)n(Cc3cccnc3)nc2-c2ccc(OC)cc2)cc1
227 to 228 °C	Cc1cc(C(=O)O)n(-c2ncc(Cl)cc2Cl)n1
140 °C	CN(C(=O)Nc1ccc(Cl)c(Cl)c1)S(C)(=O)=O
282 to 286 °C	CN1C(=O)c2ccccc2N=C(N)C1c1ccccc1 (centres undefined)
92 to 93 °C	Cc1ccc(S(=O)(=O)N(Cc2ccccc2)N=O)cc1
97 to 97.5 °C	O=C(C=CCN1CCC(O)(c2ccc(Cl)cc2)CC1)c1ccc(F)cc1
171 to 172 °C	Cc1nc(-n2ccc(N)cc2=O)sc1C(=O)NCc1ccccc1
135 °C	NC(=O)CN(c1ccc(Cl)cc1C(O)c1ccccc1Cl)S(=O)(=O)c1ccc(Cl)c(Cl)c1 (centres undefined)
67 to 70 °C	O=C(O)c1cccc(CS(=O)(=O)CCO)c1
113 to 114 °C	CCc1cccc(C(C#N)c2nc(OC)cc(OC)n2)c1[N+](=O)[O-] (centres undefined)
90 °C	O=C1C=CC(Br)N(CCl)N1 (centres undefined)
222 to 226 °C	CC(C)(NC(=O)C1=C(C(=O)Nc2cc(OC3CCCC3)c(Cl)cc2F)CCCC1)c1cccc(Cl)c1
92 to 94 °C	CCNC(=O)[C@@H]1C[C@H](SCc2ccc(OC)cc2)CN1C(=O)OC(C)(C)C
67 to 68.5 °C	CCN(CC#N)S(=O)(=O)Cc1cccc(C(F)(F)F)c1
144 to 146 °C	Nc1ccsc1C(=O)NCC1CCN(CC2COc3ccccc3O2)CC1 (centres undefined)
50 to 51 °C	CC1(C)C=Cc2cc(OCc3ccccc3)c(OCc3ccccc3)cc2O1
216 to 218 °C	COC(=O)c1cc(O)c(N=Nc2ccccc2)c(O)c1
> 250 °C	CN1CCN(C(=O)Cn2nnnc2S)CC1
176 °C	Cc1noc(NS(=O)(=O)c2ccsc2C(=O)Nc2ccccc2)c1C
> 320 °C	O=C(CCN1CCOCC1)Nc1ccc2c(=O)c3ccc(NC(=O)CCN4CCOCC4)cc3[nH]c2c1
205 to 207 °C	O=C1Nc2cccnc2N(C(=O)CCN2CCN(Cc3ccccc3)CC2)c2ccccc21
85 to 87 °C	COc1nn(-c2ccc(C=O)c(Cl)c2)nc1Cl
107 to 109 °C	CCOC(=O)C(C(=O)CBr)C1Cc2ccccc2C(c2ccccc2)N1 (centres undefined)

melting point	SMILES
153 °C	CC(=O)NC(CC(=O)N[C@@H]1CN2C(=O)N(c3cc(Cl)nc(Cl)c3)C(=O)[C@@]2(Cc2ccc(OC(F)(F)F)cc2)C1)C(N)=O (some centres undefined)
208 °C	Cc1ccc2cccc(OCc3c(Cl)ccc(S(=O)(=O)N(C)Cc4cccc(C(N)=O)c4)c3Cl)c2n1
243 to 244 °C	COc1ccccc1Nc1nc(N)nc2c(OC)cccc12
173 to 174 °C	COc1cc(COc2nn(-c3ccccc3)cc2/C=C/C(=O)N(C)OC)ccc1OCc1nc(-c2ccco2)oc1C
177 °C	CC(C)(C)c1cccc(S(=O)(=O)n2c(Cc3ccc(C(=O)O)cc3F)cc3cc(C(F)(F)F)ccc32)c1
168 °C	CC(=O)c1ccc(C2=NC[C@@H](OC(=O)Nc3ccccc3)[C@H](c3ccccc3)O2)cc1 (racemic)
188 to 190 °C	COc1cc(C)c(C=CC(C)=CC=C(C)C(=O)O)c(C)c1C
169 to 171 °C	Cc1ccc(N2N=C3c4cc(C(=O)CCl)sc4CCC3CC2=O)cc1 (centres undefined)
111 to 115 °C	N#Cc1nn(-c2ccc(C=O)cc2)nc1-c1ccccc1
175 to 176 °C	O=C(O)C(=Cc1ccc(OCc2ccccc2)cc1OCc1ccccc1)Cc1ccccc1
166 to 167 °C	CC(=O)c1cc(C)c(OCC(=O)O)c(C)c1
150 to 153 °C	Cc1c(Cl)c(=O)n(-c2cc(C(=O)OC(C)C)c(Cl)cc2F)c(=O)n1C
253 to 255 °C	CCNC(=O)c1cnn(C)c1C(=O)Nc1ccn2nc(-c3ccccc3)nc2c1
130 to 131 °C	Cc1nc(C(F)(F)F)ccc1C(=O)C1=C(Sc2ccc(Cl)cc2)C2CCC(C2)C1=O (centres undefined)
99 to 100 °C	CCCc1nn(-c2ccc(C(F)(F)F)cn2)cc1CCCOc1cccc(OC(C)(C)C(=O)O)c1
203 to 205 °C	CC(=O)C1=CCC2C3CCC4CC(O)CCC4(C)C3CC(O)C12C (centres undefined)
161 to 165 °C	CC(C)(C)c1cc(CC(Cc2cc(C(C)(C)C)c(O)c(C(C)(C)C)c2)[N+](=O)[O-])cc(C(C)(C)C)c1O
128 to 135 °C	CCCC(=O)Nc1nc(CN2CCN(C(c3ccccc3)c3ccccc3)CC2)cs1
183 to 185 °C	OCc1c[nH]c(-c2ccc(OCc3ccccc3)cc2)n1
215 to 220 °C	Cc1cc(C)c2ccc(N)nc2n1
169 to 177 °C	CCC(C)c1ccccc1N1C(=O)CS/C1=N\C(=O)Nc1ccc(-c2ncn(-c3ccc(OC(F)(F)F)cc3)n2)cc1 (centres undefined)
184 °C	CN(C)C(=O)Nc1cc(CNc2ccccc2C(=O)Nc2ccc3cn(C)nc3c2)ccn1

SMILES	melting point
CC(C)c1ccccc1N=C1NCCS1	76 to 77 °C
COc1ccc2c(c1)[C@@H](O)[C@H](CN1CCC3(CC1)C(=O)NCN3c1ccccc1)CC2 (relative stereo)	216 to 218 °C
CC(C)(C)OC1CCC2(C)C(=CC(=O)C3C4CCC(=O)C4(C)CCC32)C1 (centres undefined)	189 to 191 °C
N#CC1CN1C(=O)NC(=O)c1cccc([N+](=O)[O-])c1 (centres undefined)	156 to 158 °C
CCCN(CCC)Cc1csc(-c2ncn3c2CN(C)C(=O)c2c-3ccc(F)c2Cl)n1	123 °C

Source: a melting point compilation (Tetko et al.; mined from patent text by program, amines drawn as free bases though some values may be those of a salt)
